Tests used:
Assay type in all cases: functional
[1] = tested on: Priestia megaterium; assay: Antimicrobial activity against Bacillus megaterium in combination with Berberine and 10 ug/mL of compound 4 (alone MIC= 125 ug/mL)
[2] = tested on: Staphylococcus aureus; assay: Antimicrobial activity against NorA Staphylococcus aureus in combination with Ciprofloxacin and 10 ug/mL of compound 4 (alone MIC= 0.2 ug/mL)
[3] = tested on: Bacillus subtilis; assay: Antimicrobial activity against Bacillus subtilis in combination with Norfloxacin and 10 ug/mL of compound 4 (alone MIC= 1 ug/mL)
[4] = tested on: Staphylococcus aureus; assay: Antimicrobial activity against Staphylococcus aureus in combination with Berberine and 10 ug/mL of compound 4 (alone MIC= 500 ug/mL)
[5] = tested on: Bacillus subtilis; assay: Antimicrobial activity against Bacillus subtilis in combination with Ciprofloxacin and 10 ug/mL of compound 4 (alone MIC= 0.8 ug/mL)
[6] = tested on: Staphylococcus aureus; assay: Antimicrobial activity against Staphylococcus aureus in combination with Norfloxacin and 10 ug/mL of compound 4 (alone MIC= 1 ug/mL)
[7] = tested on: Bacillus subtilis; assay: Antimicrobial activity against Bacillus subtilis in combination with Berberine and 10 ug/mL of compound 4 (alone MIC= 500 ug/mL)
[8] = tested on: Staphylococcus aureus; assay: Antimicrobial activity against NorA Staphylococcus aureus in combination with Rhein and 10 ug/mL of compound 4 (alone MIC= 4 ug/mL)
[9] = tested on: Staphylococcus aureus; assay: Antimicrobial activity against NorA Staphylococcus aureus in combination with Berberine and 10 ug/mL of compound 4 (alone MIC= 64 ug/mL)
[10] = tested on: Priestia megaterium; assay: Antimicrobial activity against Bacillus megaterium in combination with Rhein and 10 ug/mL of compound 4 (alone MIC= 4 ug/mL)
[11] = tested on: Priestia megaterium; assay: Antimicrobial activity against Bacillus megaterium in combination with Norfloxacin and 10 ug/mL of compound 4 (alone MIC= 1 ug/mL)
[12] = tested on: Bacillus subtilis; assay: Antimicrobial activity against Bacillus subtilis in combination with Rhein and 10 ug/mL of compound 4 (alone MIC= 16 ug/mL)
[13] = tested on: Staphylococcus aureus; assay: Antimicrobial activity against Staphylococcus aureus in combination with Ciprofloxacin and 10 ug/mL of compound 4 (alone MIC= 0.5 ug/mL)
[14] = tested on: Priestia megaterium; assay: Antimicrobial activity against Bacillus megaterium in combination with Ciprofloxacin and 10 ug/mL of compound 4 (alone MIC= 0.8 ug/mL)
[15] = tested on: Staphylococcus aureus; assay: Antimicrobial activity against NorA Staphylococcus aureus in combination with Norfloxacin and 10 ug/mL of compound 4 (alone MIC= 0.4 ug/mL)
[16] = tested on: Staphylococcus aureus; assay: Antimicrobial activity against Staphylococcus aureus in combination with Rhein and 10 ug/mL of compound 4 (alone MIC= 4 ug/mL)

## CCCCOC1OC(COC(=O)C(C)C)C(OC(=O)C(C)C)C(O)[C@H]1O[C@@H]1OC(C)C(OC(=O)C(C)C)C(OC(C)=O)C1OC(=O)CCCC (stereo partly specified)
[1]
  MIC: 6.25 µg/mL
[2]
  MIC: 0.1 µg/mL
[3]
  MIC: 0.2 µg/mL
[4]
  MIC: 3.12 µg/mL
[5]
  MIC: 0.1 µg/mL
[6]
  MIC: 0.2 µg/mL
[7]
  MIC: 125 µg/mL
[8]
  MIC: 1 µg/mL
[9]
  MIC: 1.56 µg/mL
[10]
  MIC: 1 µg/mL
[11]
  MIC: 0.2 µg/mL
[12]
  MIC: 4 µg/mL
[13]
  MIC: 0.1 µg/mL
[14]
  MIC: 0.1 µg/mL
[15]
  MIC: 0.1 µg/mL
[16]
  MIC: 1 µg/mL
